Here are results for two compounds from publication PMC6733504, “Effects of flavoring compounds used in electronic cigarette refill liquids on endothelial and vascular function” (PLoS ONE, 2019).

A word on the EC50: it is the concentration giving half of the maximal effect.

Data set [1] has as its system endothelium-denuded rat aortic rings. The experiment in a line: cAMP and cGMP levels in endothelium-denuded aortic rings. From the text: 1 S4 Table. […]
2 endothelium-denuded rat aortic rings.
Flavoring (fmol x mg-1) (fmol x mg-1)
4 En d o th e liu m-denuded rings, treated with test compounds as described in the
5 Materials and methods section of the main text, were freeze-clamped when maximal
6 relaxation had been reached. Rings were homogenized in 5% trichloroacetic acid
7 and analyzed for cAMP and cGMP by radioimmunoassay. Forskolin and DEA/NO
8 were used to induce maximal accumulation of cAMP and cGMP, respectively. Data
9 shown are mean values±SEM of 3 (forskolin and DEA/NO) or 6 (basal,
10 cinnamaldehyde and eugenol) rings; n.d., not determined, *p<0.05 vs. basal (ANOVA
11 and Dunnett's post hoc test).

Data set [2] concerns endothelial cells. The experiment in a line: MTT to formazan conversion (viability). It counts as cell-based, porcine. Conditions: 1 mM, 60 minutes. The procedure: The viability of endothelial cells was judged by incubation with 1 mM of the flavoring compounds, followed by determination of 3-(4,5-dimethyl-2-thiazolyl)-2,5-diphenyltetrazolium bromide (MTT) to formazan conversion using the Cayman MTT Cell Proliferation Assay Kit purchased through VWR International (Vienna, Austria).

The nature of data set [3]: Estimated plasma concentration upon inhalation of cinnamaldehyde-containing aerosol. Set-up: species or system human. Conditions: 10 ml of 6.9 mM liquid, plasma volume 3 liters, 100% bioavailability, no distribution, metabolism or clearance.
For data set [4], the system named is Porcine aortic endothelial cells (endogenous NO/cGMP pathway). The experiment in a line: A23187 (Ca2+ ionophore)-induced endothelial cGMP formation. It counts as cell-based. The procedure: (§1) Porcine aortic endothelial cells were isolated as described and cultured at 37°C, 5% CO2 for up to 3 passages in Dulbecco´s modified Eagle´s medium, containing 10% heat-inactivated fetal calf serum (FCS), 100 U/ml penicillin, 0.1 mg/ml streptomycin, and 1.25 μg/ml amphotericin B. Prior to experiments, cells were subcultured into 24-well plates (determination of cGMP formation) or 6-well plates (determination of L-citrulline formation).
Accumulation of intracellular 3',5'-cyclic GMP (cGMP) was determined as previously described. Briefly, endothelial cells were washed and preincubated with the compounds to be tested for 15 minutes at 37°C in 50 mM Tris buffer, pH 7.4, containing 100 mM NaCl, 5 mM KCl, 1 mM MgCl2, 2.5 mM CaCl2, 1 mM 3-isobutyl-1-methylxanthine, and 1 μM indomethacin. Reactions were started by addition of the Ca^2+ ionophore A 23187 (final concentration 1 μM) or the NO donor DEA/NO (final concentration 1 μM) and terminated after 4 minutes by removal of the incubation medium and addition of 0.01 M HCl. Within 1 h, intracellular cGMP was completely released into the supernatant and measured by radioimmunoassay.

Data set [5] concerns Porcine aortic endothelial cells (endothelial sGC). The experiment in a line: DEA/NO-induced endothelial cGMP formation. Conditions: for DEA/NO-stimulated endothelial cGMP formation: 1 mM. It counts as cell-based. The procedure: as §1
Accumulation of intracellular 3',5'-cyclic GMP (cGMP) was determined as previously described. […] Reactions were started by addition of the Ca^2+ ionophore A 23187 (final concentration 1 μM) or the NO donor DEA/NO (final concentration 1 μM) and terminated after 4 minutes by removal of the incubation medium and addition of 0.01 M HCl. Within 1 h, intracellular cGMP was completely released into the supernatant and measured by radioimmunoassay.

Data set [6] in a line: Electrochemical determination of NO released from DEA/NO (NO scavenging). Conditions: DEA/NO 1 μM. As to the method:
Scavenging of NO by flavoring compounds was studied with a nitric oxide sensor (ISO-NOP, World Precision Instruments, Berlin, Germany), calibrated with acidified nitrite as described previously. Free NO radical was generated by incubation of DEA/NO (1 μM) in 1 ml of 100 mM phosphate buffer, pH 7.4, in the absence or presence of superoxide dismutase (2500 U/ml) at ambient temperature. At the peak concentration of NO, flavoring compounds (10 μl of DSMO stock solutions) were added, DMSO served as vehicle control.

Data set [7] concerns endothelial cells. Conditions: pig, 1 h, 1 mM.
Procedure: (§2) To test for membrane integrity, endothelial cells were assayed for release of lactate dehydrogenase (LDH) into the culture medium. Subsequent to incubation with flavoring compounds (1 mM each) for 1 hour, 20-μl aliquots of the culture media were mixed with 200 μl of reagent buffer (1 mM pyruvate and 0.1 mM NAD^+ in PBS). The decrease in light absorbance at 340 nm was monitored using a diode array spectrophotometer (Hewlett Packard 8452A). Maximum LDH release was determined by treating the cells with 1% Triton X-100.
Data set [8] concerns endothelium-denuded rat aortic rings. The data set can be described thus: CaCl2-induced contractile response in endothelium-denuded aortic rings. The following applies: Ca2+-free high K+ solution, CaCl2 0.156-2.5 mM. As to the method:
Rings were treated with Ca2+-
4 free high K+ solution (containing 0.1 mM EG TA a n d 6 0 mM K+). The Ca2+-free
5 preparations were then cumulatively contracted with CaCl2 (0.156-2.5 mM) in the
6 absence or presence of cinnamaldehyde or eugenol. The established L-type Ca2+
9 Concentration-response curves obtained with different ring segments from a single
10 animal were averaged and counted as an individual experiment. Data are expressed
11 as mean values ±SEM ( n=3).
(1 picture or pasted object on this page, not shown here)

The conditions of data set [9]: rats, cited from earlier work.
Another data set deals with rat aortic rings. The data set can be described thus: Effect of flavorings on vascular tone of U-46619 precontracted aortic rings. The following applies: 95% CI. As to the method:
Unsexed Sprague-Dawley rats (obtained from Charles River, Sulzfeld, Germany) were housed at the local animal facility in approved cages. […] Animals were euthanized in a box that was gradually filled with CO2 until vital signs had ceased (cessation of respiration and circulation). Subsequently, the thorax of the animals was opened, the thoracic aorta was removed, cleaned from connective tissue and immediately used for assessment of vessel function.
After equilibration for 60 min at the optimal resting tension of 20 mN, maximal contractile activity was determined with a depolarizing solution containing 60 mM K^+. […] When contraction had reached a stable plateau (~after 20 min) cumulative concentration-response curves were established with flavorings. Where indicated, the effects of the flavorings on vascular tone were tested in the presence of the NOS inhibitor N^G-nitro-L-arginine methyl ester (L-NAME, 0.2 mM).
Concentration-response curves of different ring segments from a single animal were averaged and counted as an individual experiment.

Data set [10] has as its system endothelial cells. The experiment in a line: LDH release (membrane integrity). The following applies: 1 mM, 60 minutes; maximum = 1% Triton. (LDH leaks from cells whose membrane has failed.)
Procedure: as §2
Where [11] appears, read: Rattus norvegicus, absence of L-NAME, read-out: EC50 of relaxation of pre-contracted vessels (Control).
Where [12] appears, read: Rattus norvegicus, presence of L-NAME 0.2 mM, read-out: EC50 of relaxation of pre-contracted vessels (L-NAME).

Each structure is given as a SMILES string. Where two headings read alike, the source gives them in different places.

For the compound `O=C/C=C/c1ccccc1` [Cinnamaldehyde, (2E)-3-Phenylprop-2-enal], the cAMP was 200±36 fmol x mg-1 in [1] (1 mM) and 161±7 fmol x mg-1 in data set [1] (10 mM). For the same compound, the cGMP is reported as 127±10 fmol x mg-1 in data set [1] (1 mM) and 86±7 fmol x mg-1 in [1] (10 mM). Further, the “Formazan formation (% of control)” value in the data set with endothelial cells [2] is listed as 91±2.6 % of control. Besides, the Estimated plasma concentration in [3] was 23 µM. Besides, the “Concentration inhibiting Ca2+-stimulated endothelial cGMP accumulation” value in data set [4] is listed as at least 0.3 mM. The “A23187-induced cGMP formation” value in [4] (flavoring 1 mM, 15 min preincubation, 1 μM A23187 for 4 min (Fig 1A)) was “about 35 % of controls”. In addition, the “DEA/NO-stimulated endothelial cGMP formation” value in [5] (incubation for 15 minutes (Fig 2B)) is listed as 25.3±3.9 % of controls; in data set [5] (incubation for 75 minutes (Fig 2B)) it was 10.4±2.4 % of controls. In addition, the “DEA/NO-induced cGMP formation” value in [5] (flavoring 1 mM, 15 min preincubation, 1 μM DEA/NO for 4 min (Fig 1B)) is reported as “about 35 % of controls”. In addition, the “Effect on recorded NO signal (NO scavenging)” value in data set [6] (1 mM) is on record as “only moderate effects”; in data set [6] (10 mM), “pronounced decrease”. Moreover, the “LDH release (% of maximum)” value in the data set with endothelial cells [7] was 1.8±0.50 % of maximum. The “Effect on CaCl2-induced contraction” value in [8] is given as “significantly inhibited”. Further, the Maximal plasma concentration in [9] (intravenous bolus 25 mg/kg) is 20 µM; in data set [9] (oral 500 mg/kg), “about 2 μM”. Besides, the EC50 in the data set on rat aortic rings (setting [11]) is about 500 µM; in the data set with rat aortic rings (setting [12]), 600 µM.
On to `C=CCc1ccc(O)c(OC)c1` [Eugenol, 2-Methoxy-4-(prop-2-en-1-yl)phenol], for which the cAMP is given as 162±9 fmol x mg-1 in [1] (1 mM) and 171±24 fmol x mg-1 in data set [1] (10 mM). Besides, the cGMP in data set [1] (1 mM) worked out at 81±4 fmol x mg-1; in data set [1] (10 mM), 71±18 fmol x mg-1. Besides, the “Formazan formation (% of control)” value in the data set with endothelial cells [2] is 107±4.6 % of control. Also, in the data set with endothelial cells [10], the “LDH release (% of maximum)” value is given as 0.4±0.23 % of maximum. For the same compound, in [8], the “Effect on CaCl2-induced contraction” value was “significantly inhibited”. The EC50 with rat aortic rings (setting [11]) was about 500 µM; in the data set on rat aortic rings (setting [12]) it was 500 µM; with rat aortic rings (absence of L-NAME, read-out: EC50 of relaxation of pre-contracted vessels (Control)), 400 µM.
